What all share (assay type): in vivo
The test system of assay [1] is corn planthopper (Peregrinus maidis (Ashmead)). The assay is described as follows: Test C: corn planthopper control on corn plants, insect mortality after 6 days. The following applies: Peregrinus maidis, read-out: % Mortality (obs). The method, then: (§1) The pest control protection afforded by the mixtures or compositions is not limited, however, to these species. The analysis of enhanced activity between the mixtures or compositions was determined using Colby's equation. The average % mortality data for the test compounds alone were inserted into the Colby's equation. If the observed (obs) average % mortality was higher than “p”, the expected (exp) % mortality, the mixture or composition had enhanced effects. If the observed average % mortality was equal to or lower than the expected mortality, the mixture or composition either had no enhanced effect. For bioassays where insect feeding damage was evaluated, enhanced activity is identified when the observed plant damage is less than the expected plant damage rating; ratings ranged between 0 (no damage) and 10 (dead plant) and each value was converted to a % plant protection. 100−(Obs Plant Damage*10)
For evaluating control of corn planthopper (Peregrinus maidis (Ashmead)) through contact and/or systemic means, the test unit consisted of a small open container with a 3-4-day-old corn (maize) plant inside. White sand was added to the top of the soil prior to application of the test compound.
Test compounds were formulated and sprayed at 250 and/or 50 ppm and/or 10 ppm. After spraying of the formulated test compound, the test units were allowed to dry for 1 h before they were post-infested with ˜15-20 nymphs (18-to-21-day-old). […]

In assay [2] the test system is Potato Leafhopper (Empoasca fabae Harris). The assay is described as follows: Test C: Potato Leafhopper control on bean plants, insect mortality after 6 days. The note with it: read-out: % Mortality (obs). As for the experimental part:
as §1
For evaluating control of Potato Leafhopper (Empoasca fabae Harris) through contact and/or systemic means, each test unit consisted of a small open container with a 5- to 6-day-old Longio bean plant (primary leaves emerged) inside. White sand was added to the top of the soil, and one of the primary leaves was excised prior to application. Test compounds were formulated and sprayed with 3 replications as described for Test A. After spraying, the test units were allowed to dry for 1 hour before they were infested with 5 potato leafhoppers (18- to 21-day-old adults). A black, screened cap was placed on the top of each container. The test units were held for 6 days in a growth chamber at 19-21° C. and 50-70% relative humidity.

The test system of assay [3] is diamondback moth (Plutella xylostella L.). Kind of assay: Test E: diamondback moth control on mustard plants, contact and/or systemic, plant damage rating after 6 days. As for the experimental part: as §1
For evaluating control of diamondback moth (Plutella xylostella L.) through contact and/or systemic means, each test unit consisted of a small open container with a 10- to 12-day-old mustard plant inside. Test compounds were formulated and sprayed with 3 replications as described for Test A. After spraying, the test units were allowed to dry for 1 hour before they were infested with 30-50 neonate larvae. A black, screened cap was placed on the top of each container. The test units were held for 6 days in a growth chamber at 24-25° C. and 70% relative humidity. Each test unit was then visually assessed for plant damage and rated 0-10, where 0=undamaged and 10=plant is dead; the results are listed in Tables 6a-b.

In assay [4] the test system is fall armyworm (Spodoptera frugiperda (J. E. Smith)). Kind of assay: Test E: fall armyworm control on corn plants, plant damage rating and mortality after 6 days. The note with it: Spodoptera frugiperda, 144 h, read-out: Plant Protection (obs). As for the experimental part:
as §1
For evaluating control of fall armyworm (Spodoptera frugiperda (J. E. Smith)) the test unit consisted of a small open container with a 4-5-day-old corn (maize) plant inside. This was pre-infested with 10-15 1-day-old larvae on a piece of insect diet. Test compounds were formulated and sprayed with 3 replications as described for Test A. After spraying of the formulated test compound, the test units were maintained in a growth chamber for 6 days at 25° C. and 70% relative humidity. Plant feeding damage was then visually assessed based on foliage consumed, and larvae were assessed for mortality. Each test unit was then visually assessed for plant damage and rated 0-10, where 0=undamaged and 10=plant is dead; the results are listed in Tables 6d-i.

The test system of assay [5] is diamondback moth (Plutella xylostella L.). The assay is described as follows: Test E: diamondback moth control through ingestion only, sprayed cabbage leaf tissue (Dipel), mortality after 4 days. The note with it: Table 6c, read-out: % Mortality (obs). The method, then:
as §1
For evaluating control of diamondback moth (Plutella xylostella L.) through ingestion only, the test substance Dipel® (active ingredient Bacillus thuringiensis kurstaki) was formulated by diluting in water and then adding an MSO based adjuvant at 0.1% v/v. Cabbage plants were sprayed with Dipel® to runoff and allowed to dry for three hours. Once dry, plants leaf tissue was excised and one piece was placed into one well in an eight well tray. Test units were maintained in a growth chamber at 24-25° C. and 70% relative humidity.

Where two headings read alike, the source gives them in different places.

With `CSCC(C)(C)NC(=O)c1ccc(F)c2nn(-c3cccnc3)cc12` [Cpd 1, N-[1,1-dimethyl-2-(methylthio)ethyl]-7-fluoro-2-(3-pyridinyl)-2H-indazole-4-carboxamide], the mortality at 50 ppm was found to be 14.8% in assay [1] (96 h, Table 4d); 18.9% in assay [1] (Table 4e); 60% in assay [2] (Table 4a); 20% in assay [2] (Table 4b); 6.7% in assay [2] (Table 4c). For the same compound, the mortality at 250 ppm worked out at 45.8% in assay [1] (96 h, Table 4d); 7.6% in assay [1] (Table 4e); 35.7% in assay [2] (Table 4a); 6.7% in assay [2] (Table 4b); 33.3% in assay [2] (Table 4c). Moreover, the “Plant Protection (obs)” value is 0.0 in assay [3] (Table 6a, 50 ppm); 0.0 in assay [3] (Table 6a, 250 ppm); 0.0 in assay [3] (Table 6b, 50 ppm); 0.0 in assay [3] (Table 6b, 250 ppm). For the same compound, the pest or weed control at 50 ppm in assay [4] (Table 6e) was determined as 0%. The pest or weed control at 250 ppm in assay [4] (Table 6e) came out at 0%.

As to `CC(C)(CS(C)(=O)=O)NC(=O)c1ccc(F)c2nn(-c3cccnc3)cc12` [Cpd 3, N-[1,1-dimethyl-2-(methylsulfonyl)ethyl]-7-fluoro-2-(3-pyridinyl)-2H-indazole-4-carboxamide], the mortality at 50 ppm in assay [1] (96 h, Table 4d) amounted to 8.3%; in assay [1] (Table 4e), 5%; in assay [2] (Table 4a) it was 0%; in assay [2] (Table 4b) it was 13.3%; in assay [2] (Table 4c), 6.7%. Besides, the mortality at 250 ppm is 0% in assay [1] (96 h, Table 4d); 1.2% in assay [1] (Table 4e); 0% in assay [2] (Table 4a); 0% in assay [2] (Table 4b); 0% in assay [2] (Table 4c). For the same compound, the “Plant Protection (obs)” value in assay [3] (Table 6a, 50 ppm) came out at 0.0; in assay [3] (Table 6a, 250 ppm), 0.0; in assay [3] (Table 6b, 50 ppm), 0.0; in assay [3] (Table 6b, 250 ppm), 0.0. Moreover, the pest or weed control at 50 ppm in assay [4] (Table 6e) was 0%. Besides, the pest or weed control at 250 ppm in assay [4] (Table 6e) was determined as 0%.

In the case of `CC1(NC(=O)c2cccc3nn(-c4cccnc4)cc23)CC1` [Cpd 4, N-(1-methylcyclopropyl)-2-(3-pyridinyl)-2H-indazole-4-carboxamide], the mortality at 50 ppm in assay [1] (96 h, Table 4d) stood at 0%; in assay [1] (Table 4e), 38.9%; in assay [1] (Table 4f) it was 1.8%; in assay [1] (Table 4g), 1.8%; in assay [2] (Table 4a), 7.1%; in assay [2] (Table 4b), 0%. The values for the mortality at 50 ppm in assay [2] (Table 4c) and in assay [5] (50 ppm) were 26.7% and 12.5%, respectively. For the same compound, the mortality at 250 ppm in assay [1] (96 h, Table 4d) turned out to be 9.1%; in assay [1] (Table 4e) it was 34.8%; in assay [1] (Table 4f), 10.8%; in assay [1] (Table 4g), 10.8%; in assay [2] (Table 4a), 6.7%; in assay [2] (Table 4b) it was 14.3%. Besides, the mortality at 250 ppm turned out to be 0% in assay [2] (Table 4c) and 17% in assay [5] (250 ppm). Also, the “Plant Protection (obs)” value in assay [3] (Table 6a, 50 ppm) turned out to be 0.0; in assay [3] (Table 6a, 250 ppm) it was 0.0; in assay [3] (Table 6b, 50 ppm), 0.0; in assay [3] (Table 6b, 250 ppm), 0.0. Also, the pest or weed control at 50 ppm in assay [4] (Table 6e), in assay [4] (Table 6f), in assay [4] (Table 6g), in assay [4] (Table 6i), in assay [4] (Table 6h) and in assay [4] (Table 6d) was 0% in each case. Moreover, the pest or weed control at 250 ppm in assay [4] (Table 6e) came out at 0%; in assay [4] (Table 6f), 0%; in assay [4] (Table 6g) it was 20%; in assay [4] (Table 6i), 0%; in assay [4] (Table 6h), 20%; in assay [4] (Table 6d), 0%.

`C[S+]([O-])CC(C)(C)NC(=O)c1ccc(F)c2nn(-c3cccnc3)cc12` (centres unmarked) [Cpd 2, N-[1,1-dimethyl-2-(methylsulfinyl)ethyl]-7-fluoro-2-(3-pyridinyl)-2H-indazole-4-carboxamide]: the mortality at 50 ppm was determined as 0% in assay [1] (96 h, Table 4d); 7.3% in assay [1] (Table 4e); 46.7% in assay [2] (Table 4a); 6.7% in assay [2] (Table 4b); 20% in assay [2] (Table 4c). Also, the mortality at 250 ppm stood at 54.1% in assay [1] (96 h, Table 4d); 22.4% in assay [1] (Table 4e); 86.7% in assay [2] (Table 4a); 85.7% in assay [2] (Table 4b); 73.3% in assay [2] (Table 4c). The “Plant Protection (obs)” value stood at 0.0 in assay [3] (Table 6a, 50 ppm); 0.0 in assay [3] (Table 6a, 250 ppm); 0.0 in assay [3] (Table 6b, 50 ppm); 0.0 in assay [3] (Table 6b, 250 ppm). For the same compound, in assay [4] (Table 6e), the pest or weed control at 50 ppm is 0%. Also, the pest or weed control at 250 ppm in assay [4] (Table 6e) was found to be 0%.

Source of the values: patent US12419307B2, “Mixtures comprising indazole pesticides” (FMC Corporation, priority 2019, dated 2025).
